Data: patent publication US5045566A, “Novel imidate insecticides” (ICI Americas Inc., priority 1989, dated 1991)

Tests used:
Type in all cases: in vivo
[1] = tested on: Tobacco Budworm [Heliothis virescens (Fabricius)] larvae; test: Tobacco budworm larvae, contact (TBW-C), 5 days; conditions: percent in solution, second-instar larvae
Summary of the method: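 Cotton cotyledons dipped 2–3 s in compound in 50-50 acetone-water, dried, then infested with 5 second-instar larvae and held 5 days at high humidity. Mortality scored; LC50 from dosage-mortality curves, expressed as percent compound in solution, concentrations from 0.1% downward.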

[2] = tested on: Rice water weevil [Lissorhoptrus oryzophilus (Kuschel)]; test: Rice water weevil topical (RWW), 48 hours; conditions: μg of test compound per weevil, female adults
Summary of the method: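 Female adult weevils (ten per dose) received 1 µl acetone droplets on the ventral abdomen and were held at about 25 °C with wet cotton and rice foliage. Mortality read at 48 h; LC50 from dose-mortality curves, given as µg compound per weevil, top dose 2.5 µg per weevil.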

[3] = tested on: Maize weevil [Sitophilus zeamais (Motschulsky)]; test: Maize weevil on dipped corn seeds (MW), 48 hours; conditions: percent in solution, adult weevils
Summary of the method: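 LC50, given as percent of compound in dipping solution, comes from dosage-mortality curves over concentrations descending from 0.01%. Four corn seeds soaked 2-3 s in 50:50 acetone:water solution were dried and held with 10 adult weevils, about 25° C, mortality read after 48 h.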

[4] = tested on: Aster Leafhopper [Macrosteles fascifrens (Stal)]; test: Aster leafhopper on dipped oat seedlings (LH), 48 hours; conditions: percent in solution, adults/nymphs
Summary of the method: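 LC50 values, given as percent of test compound in the dip solution, were derived from dosage-mortality curves over concentrations from 0.05% downward. Mortality was counted 48 hours after ten leafhopper adults/nymphs were enclosed on treated seedlings. The seedlings were oats, about 10 cm tall, briefly dipped in 50-50 acetone-water.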

[5] = tested on: Black Bean Aphid [Aphis fabae (Scop.)]; test: Black bean aphid spray test on nasturtium (BBA), 48 hours; conditions: percent of test compound in sprayed solution
Summary of the method: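 LC50, given as percent test compound in the sprayed liquid, was calculated from dosage-mortality curves using concentrations from 0.05% downward. Sprays in 50:50 acetone-water went to runoff on ~5 cm nasturtiums carrying 25-50 aphids of mixed ages, one day after infestation. Deaths were counted 48 h later under greenhouse conditions.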

[6] = tested on: Tobacco Budworm [Heliothis virescens (Fabricius)] eggs; test: Tobacco budworm eggs (TBW-E); conditions: percent in solution; 2-day old eggs
Summary of the method: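 Paper towel patches bearing 2-day old eggs were dipped in acetone solutions of compound, then set in petri dishes over larval rearing medium at 78° F. Mortality was scored once all control eggs had hatched and larvae were feeding. LC50, from dosage-mortality curves, is given as percent compound in solution.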

[7] = tested on: Cabbage Looper [Trichoplusia ni (Hubner)]; test: Cabbage looper leaf dip (CL), 3-5 days; conditions: percent in solution, second-instar larvae
Summary of the method: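 Compounds in 50-50 acetone-water were applied by dipping squash cotyledons (about 1×1.5 in) for 2-3 s; dried leaves went into petri dishes on moist filter paper with 5 second-instar larvae under high humidity. Mortality was scored after 3-5 days; LC50 from dosage-mortality curves, as percent compound in solution.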

[8] = tested on: Beet Armyworm (Spodoptera exigua); test: Beet armyworm leaf dip (BAW), 5 days; conditions: percent in solution; second-instar larvae; five days
Summary of the method: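 Five second-instar larvae per dish fed on dried sugar beet leaves previously dipped 2–3 s in acetone-water (1:1) test solutions up to 0.1%. Kept at high humidity, with deaths counted after five days; LC50 as % in solution via dosage-mortality curves.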

[9] = tested on: Housefly [Musca domestica]; test: Housefly contact mortality in dishes (HF), 48 hours; conditions: μg of test compound per 25 female flies
Summary of the method: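 LC50 (μg compound per 25 female flies) derives from dosage-mortality curves of 48 h kill. Flies, females 1-2 days old, were held 25 per cage over a dish coated with dried acetone deposit, starting at 100 μg per cage and descending.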

[10] = tested on: two-spotted mite [Tetranychus urticae (Koch)]; test: Two-spotted mite activity; conditions: initial testing level 0.05% in solution
Procedure: The compounds in Tables 1 and 2 were also tested for activity against the two-spotted mite [Tetranychus urticae (Koch)] and Western spotted cucumber beetle larvae [Diabrotica undecimpunctata undecimpunctata (Mannerheim)]. Initial testing levels were 0.05% (in solution) against the mite, and 25 ppm (in soil) against the beetle.

Row | SMILES | LC50 TBW C (contact) [1] | LC50 RWW [2] | LC50 MW [3] | LC50 LH [4] | LC50 BBA [5] | LC50 TBW E (eggs) [6] | LC50 CL [7] | LC50 BAW [8] | LC50 HF [9] | activity in tests against twospotted mite [10]
1 | CC(C)C(=Nc1ccc(OC(F)(F)F)cc1)OCc1ccc(F)c(Oc2ccc(Cl)cc2)c1 [Compound 323] | 0.00065% | 0.16 µg | 0.0075% | 0.05% | > 0.05% | 0.045% | 0.0006% | 0.0025% | > 100 µg | 
2 | CC(C)C(=Nc1ccc(OC(F)(F)C(F)Cl)cc1)OCc1cccc(Oc2ccccc2)c1 (stereo not drawn) [Compound 418] |  |  | > 0.01% |  | > 0.05% | > 0.1% | > 0.1% |  | > 100 µg | demonstrated activity
3 | CC(C)C(=Nc1ccc(F)c(C(F)(F)F)c1)OCc1ccc(F)c(Oc2ccc(F)cc2)c1 [Compound 277] | 0.0005% | 0.065 µg | > 0.01% | 0.0003% | 0.0008% | 0.013% | 0.00001% | 0.005% | 4 µg | 
4 | CC(C)C(=Nc1ccc(F)c(Cl)c1)OCc1cccc(Oc2ccc(Cl)cc2)c1 [Compound 239] | 0.0005% | > 2.5 µg | 0.006% | 0.002% | 0.001% | 0.025% | 0.00015% | 0.005% | 14 µg | 
5 | CC(C)C(=Nc1ccc(OC(F)(F)C(F)Cl)cc1)OCc1ccc(F)c(Oc2ccccc2)c1 (stereo not drawn) [Compound 419] |  |  | > 0.01% |  | > 0.05% | > 0.1% | > 0.1% |  | > 100 µg | demonstrated activity
6 | CC(C)C(=Nc1ccc2c(c1)OCO2)OCc1cccc(Oc2ccccc2)c1 [Compound 180] | 0.003% | > 2.5 µg | 0.008% | 0.0015% | 0.0003% | 0.03% | 0.0004% | 0.005% | 2 µg | 
7 | CC(C)C(=Nc1ccc(F)c(Cl)c1F)OCc1cccc(Oc2ccc(F)cc2)c1 [Compound 352] | 0.0004% | > 2.5 µg | 0.0075% | 0.0004% | 0.0003% | > 0.1% | 0.000065% | > 0.1% | 4.6 µg | 
8 | CC(C)C(=Nc1ccc(F)c(Cl)c1)OCc1cccc(Oc2ccccc2)c1 [Compound 81, N-(3-Chloro-4-fluorophenyl)-O-(3-phenoxybenzyl)isobutyrylimidate] | 0.0009% | > 0.5 µg | 0.005% | 0.0003% | 0.001% | 0.007% | 0.0006% | 0.003% | 4 µg | 
9 | CC(C)C(=Nc1ccc(OC(F)(F)F)cc1)OCc1ccc(F)c(Oc2ccc(F)cc2)c1 [Compound 286] | 0.00017% | 0.09 µg | 0.0039% | 0.0006% | 0.0003% | 0.005% | 0.000024% | 0.0004% | 34 µg | 
10 | CC(C)C(=Nc1ccc(F)c(Cl)c1)OCc1cccc(Oc2ccc(F)cc2)c1 [Compound 89] | 0.0005% | > 2.5 µg | 0.005% | 0.001% | 0.003% | 0.04% | 0.00003% | 0.009% | 5 µg | 
